Data taken from PMC7127169 (Bioorganic & Medicinal Chemistry, 2012).
Entries after “also recorded” stand apart in the source; their conditions may differ.

Columns and labels:
SARS-CoV PL^pro [1] = biological target: T1, SARS-CoV PL^pro (Severe acute respiratory syndrome coronavirus, UniProt P0C6U8); type: biochemical
Chymotrypsin = Chymotrypsin (Bos taurus, UniProt P00766); experiment: biochemical
Papain = biological target: T2, Papain (Carica papaya, UniProt P00784); experiment: biochemical
T2 sequence (P00784 134-345): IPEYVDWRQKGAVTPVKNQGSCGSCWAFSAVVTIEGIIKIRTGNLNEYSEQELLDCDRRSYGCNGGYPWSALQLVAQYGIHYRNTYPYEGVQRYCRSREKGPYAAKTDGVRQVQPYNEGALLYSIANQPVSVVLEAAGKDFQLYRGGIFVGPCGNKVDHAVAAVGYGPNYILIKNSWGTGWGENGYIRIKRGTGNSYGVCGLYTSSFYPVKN

SARS-CoV 3CL^pro = SARS-CoV 3CL^pro (Severe acute respiratory syndrome coronavirus, UniProt P0C6U8); type: biochemical; details: at 200 μM
SARS-CoV PL^pro [2] = biological target: T1, SARS-CoV PL^pro; type: biochemical; remark: listed apart in the source
[3] = biological target: SARS-CoV PL^pro deubiquitination (DUB) activity (Severe acute respiratory syndrome coronavirus, UniProt P0C6U8); experiment: biochemical
HIV-1 protease = HIV-1 protease (Human immunodeficiency virus type 1 group M subtype B, UniProt P04585); experiment: biochemical

Row | Compound | k5 (SARS-CoV PL^pro [1]) | k6 (SARS-CoV PL^pro [1]) | IC50 (Papain) | further results
1 | Cc1cccc2c3c(ccc12)C1=C(C(=O)C3=O)[C@@H](C)CO1 [Compound 6, Dihydrotanshinone I] | 0.03203 ± 0.001 min⁻¹ | 0.003175 ± 0.0003 min⁻¹ | > 200 µM | IC50 (Chymotrypsin): > 200 µM
2 | Salvianolic acid B | – | – | – | inhibition of 3CL^pro (SARS-CoV 3CL^pro): 30%
3 | C[C@H]1COC2=C1C(=O)C(=O)c1c2ccc2c1CCCC2(C)C [Compound 4, Cryptotanshinone] | 0.08127 ± 0.001 min⁻¹ | 0.001406 ± 0.0001 min⁻¹ | – | slow-binding inhibition mechanism on PL^pro (SARS-CoV PL^pro [1]): slow-binding inhibition kinetics; type of inhibition toward PL^pro (SARS-CoV PL^pro [2]): Noncompetitive inhibition
4 | CC(C)C1=Cc2ccc3c(c2C(=O)C1=O)CCCC3(C)C [Compound 7, Rosmariquinone] | – | – | – | k3 (SARS-CoV PL^pro [1]): 5 ± 0.83 M⁻¹ s⁻¹; k4 (SARS-CoV PL^pro [1]): 0.006483 ± 0.0004 min⁻¹; slow-binding inhibition mechanism on PL^pro (SARS-CoV PL^pro [1]): simple reversible slow-binding inhibition; also recorded: simple slow-binding mode; also recorded: simple reversible slow-binding inhibitor; type of inhibition toward PL^pro (SARS-CoV PL^pro [2]): mixed type inhibition
5 | COC(=O)[C@@]1(C)CCCc2c1ccc1c2C(=O)C(=O)c2c(C)coc2-1 [Compound 3, Methyl tanshinonate] | 0.0193 ± 0.001 min⁻¹ | 0.002657 ± 0.0002 min⁻¹ | > 200 µM | IC50 [3]: > 200 µM
6 | Cc1coc2c1C(=O)C(=O)c1c-2ccc2c(C)cccc12 [Compound 5, Tanshinone I] | 0.03015 ± 0.003 min⁻¹ | 0.003349 ± 0.0003 min⁻¹ | > 200 µM | –
7 | Cc1coc2c1C(=O)C(=O)c1c-2ccc2c1CCCC2(C)C [Compound 1, Tanshinone IIA] | 0.04825 ± 0.006 min⁻¹ | 0.008485 ± 0.0001 min⁻¹ | – | IC50 [3]: > 200 µM
8 | Cc1coc2c1C(=O)C(=O)c1c-2ccc2c1CCCC2(C)CO (stereo not shown) [Compound 2, Tanshinone IIB] | 0.02503 ± 0.003 min⁻¹ | 0.004704 ± 0.0002 min⁻¹ | > 200 µM | IC50 (Chymotrypsin): > 200 µM; IC50 (HIV-1 protease): > 200 µM
